The target in test [1] is T1, Histone deacetylase 1 (Homo sapiens, UniProt Q13547). Briefly: Inhibition of HDAC1 (unknown origin) using fluorimetric substrate incubated for 30 mins by fluorogenic assay.
The target of test [2] is Protein cereblon/Histone deacetylase 2 (Homo sapiens, UniProt Q92769+Q96SW2). In words: PROTAC activity at CRBN/HDAC2 (unknown origin) by cell based assay.
In test [3] the target is Protein cereblon/Histone deacetylase 3 (Homo sapiens, UniProt O15379+Q96SW2). Briefly: PROTAC activity at CRBN/HDAC3 (unknown origin) by cell based assay.
Sequence of Protein cereblon/Histone deacetylase 3 (O15379 whole entry): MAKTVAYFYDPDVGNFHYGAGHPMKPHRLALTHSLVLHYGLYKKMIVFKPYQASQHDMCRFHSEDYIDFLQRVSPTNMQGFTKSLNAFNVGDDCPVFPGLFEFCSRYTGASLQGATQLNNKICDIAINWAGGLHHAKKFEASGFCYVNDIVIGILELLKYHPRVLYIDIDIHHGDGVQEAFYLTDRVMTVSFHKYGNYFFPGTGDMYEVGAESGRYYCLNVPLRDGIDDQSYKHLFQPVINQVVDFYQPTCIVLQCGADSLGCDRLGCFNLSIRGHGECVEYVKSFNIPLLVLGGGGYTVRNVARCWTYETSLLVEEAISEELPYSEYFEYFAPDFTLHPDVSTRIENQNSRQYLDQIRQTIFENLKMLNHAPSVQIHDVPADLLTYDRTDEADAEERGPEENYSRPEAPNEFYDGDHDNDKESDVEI
Sequence of Protein cereblon/Histone deacetylase 3 (Q96SW2 whole entry): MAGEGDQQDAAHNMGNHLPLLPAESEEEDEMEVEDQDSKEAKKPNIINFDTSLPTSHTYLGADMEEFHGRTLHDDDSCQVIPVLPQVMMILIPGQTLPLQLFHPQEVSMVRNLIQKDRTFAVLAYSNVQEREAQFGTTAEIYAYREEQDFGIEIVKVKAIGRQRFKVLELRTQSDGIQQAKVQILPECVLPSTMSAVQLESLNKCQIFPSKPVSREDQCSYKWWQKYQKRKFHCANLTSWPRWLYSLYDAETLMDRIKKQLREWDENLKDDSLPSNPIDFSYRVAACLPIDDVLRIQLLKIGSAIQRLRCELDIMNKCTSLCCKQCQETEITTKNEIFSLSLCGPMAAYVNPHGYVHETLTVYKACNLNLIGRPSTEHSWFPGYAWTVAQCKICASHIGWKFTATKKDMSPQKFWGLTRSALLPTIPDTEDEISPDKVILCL
Test [4] addresses Protein cereblon/Histone deacetylase 1 (Homo sapiens, UniProt Q13547+Q96SW2). Briefly: PROTAC activity at CRBN/HDAC1 (unknown origin) by cell based assay.
In test [5] the target is Protein cereblon/Protein deacetylase HDAC6 (Homo sapiens, UniProt Q96SW2+Q9UBN7). Briefly: PROTAC activity at CRBN/HDAC6 (unknown origin) by cell based assay.
Sequence of Protein cereblon/Protein deacetylase HDAC6 (Q96SW2 whole entry, one chain of several): as the sequence (Q96SW2 whole entry) above
The target of test [6] is T2, von Hippel-Lindau disease tumor suppressor/Histone deacetylase 3 (Homo sapiens, UniProt O15379+P40337). Briefly: PROTAC activity at VHL/HDAC3 (unknown origin) by cell based assay.
Target sequence in this assay (O15379 whole entry): as the sequence (O15379 whole entry) above
Target sequence in this assay (P40337 whole entry): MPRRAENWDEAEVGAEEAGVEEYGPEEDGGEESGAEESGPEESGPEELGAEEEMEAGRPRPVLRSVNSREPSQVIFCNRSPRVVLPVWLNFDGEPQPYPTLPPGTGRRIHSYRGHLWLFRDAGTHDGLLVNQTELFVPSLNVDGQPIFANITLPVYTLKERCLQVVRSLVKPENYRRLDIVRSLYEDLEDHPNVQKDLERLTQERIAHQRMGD
Test [7] addresses T3, von Hippel-Lindau disease tumor suppressor/Histone deacetylase 1 (Homo sapiens, UniProt P40337+Q13547). In words: PROTAC activity at VHL/HDAC1 (unknown origin) by cell based assay.
In test [8] the target is T2, von Hippel-Lindau disease tumor suppressor/Histone deacetylase 3. In words: PROTAC activity at VHL/HDAC3 in human MDA-MB-468 cells assessed as induction of HDAC3 degradation incubated for 14 hrs by Western blot analysis. Type of test: cell-based. In general terms: A western blot detects proteins with antibodies after separation by electrophoresis.
Target sequence in this assay (O15379 whole entry): as the sequence (O15379 whole entry) above
Target sequence in this assay (P40337 whole entry): as the sequence (P40337 whole entry) above
Test [9] addresses von Hippel-Lindau disease tumor suppressor/Histone deacetylase 2 (Homo sapiens, UniProt P40337+Q92769). Briefly: PROTAC activity at VHL/HDAC2 (unknown origin) by cell based assay.
Test [10] is filed under the species Homo sapiens. Briefly: Selectivity ratio of IC50 for recombinant human HDAC6 to IC50 for recombinant human HDAC1.
Test [11] relates to HeLa. In words: Antiproliferative activity against human HeLa cells assessed as cell growth inhibition incubated for 48 hrs by MTT assay. Type of test: functional, cell-based. A general note: Tetrazolium dyes change colour on reduction, which living cells bring about.
Test [12] deals with T1, Histone deacetylase 1. Briefly: Inhibition of recombinant human HDAC1 using fluorogenic acetylated peptide substrate incubated for 30 mins by microplate reader analysis.
A short description of test [13]: Inhibition of His-tagged recombinant human HDAC1 expressed in baculovirus infected insect cells using SIRT1 deacetylase substrate incubated for 30 mins by Luminescence Glo assay.
Test [14] addresses T3, von Hippel-Lindau disease tumor suppressor/Histone deacetylase 1. Briefly: PROTAC activity at VHL/LSD1/HDAC1/CoREST complex interaction (unknown origin) assessed as induction of HDAC1 degradation using Boc-(Ac)Lys-AMC as substrate incubated for 20 mins by fluorescence based assay.
In test [15] the target is von Hippel-Lindau disease tumor suppressor/Histone deacetylase 1 (Homo sapiens) (UniProt Q13547+P40337). In words: PROTAC activity at VHL/HDAC1 in human HCT-116 cells assessed as induction of HDAC1 degradation at 1 uM incubated for 24 hrs by Western blot analysis relative to control. Type of test: cell-based.
Sequence of von Hippel-Lindau disease tumor suppressor/Histone deacetylase 1 (Homo sapiens) (P40337 whole entry, looked up): as the sequence (P40337 whole entry) above
Sequence of von Hippel-Lindau disease tumor suppressor/Histone deacetylase 1 (Homo sapiens) (Q13547 whole entry, looked up): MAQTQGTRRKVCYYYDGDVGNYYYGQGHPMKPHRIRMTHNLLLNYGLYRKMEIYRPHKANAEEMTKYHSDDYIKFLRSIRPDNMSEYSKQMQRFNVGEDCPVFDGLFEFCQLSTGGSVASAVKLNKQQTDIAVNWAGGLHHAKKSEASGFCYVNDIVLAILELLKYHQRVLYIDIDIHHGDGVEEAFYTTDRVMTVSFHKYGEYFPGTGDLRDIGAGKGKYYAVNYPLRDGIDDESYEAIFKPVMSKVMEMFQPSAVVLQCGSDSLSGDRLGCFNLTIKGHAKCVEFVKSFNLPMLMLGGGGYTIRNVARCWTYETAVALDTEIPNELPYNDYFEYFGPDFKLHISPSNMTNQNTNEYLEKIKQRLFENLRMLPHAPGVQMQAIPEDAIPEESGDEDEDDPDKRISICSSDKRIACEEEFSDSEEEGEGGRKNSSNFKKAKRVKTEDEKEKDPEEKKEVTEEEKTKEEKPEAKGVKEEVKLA
Test [16] addresses von Hippel-Lindau disease tumor suppressor/Histone deacetylase 2 (Homo sapiens) (UniProt Q92769+P40337). In words: PROTAC activity at VHL/HDAC2 in human HCT-116 cells assessed as induction of HDAC1 degradation at 1 uM incubated for 24 hrs by Western blot analysis relative to control. Type of test: cell-based.
Test [17] addresses T2, von Hippel-Lindau disease tumor suppressor/Histone deacetylase 3. Briefly: PROTAC activity at VHL/HDAC3 in human HCT-116 cells assessed as induction of HDAC1 degradation at 1 uM incubated for 24 hrs by Western blot analysis relative to control. Type of test: cell-based.
Target sequence in this assay (O15379 whole entry, looked up): as the sequence (O15379 whole entry) above
Target sequence in this assay (P40337 whole entry, looked up): as the sequence (P40337 whole entry) above
Test [18] deals with T1, Histone deacetylase 1. Briefly: Inhibition of recombinant human HDAC1 using fluorescent deacetylated substrate incubated for 15 mins by fluorescence based assay.
Test [19] is described as follows: Inhibition of recombinant human HDAC3/NCOR1 using fluorescent deacetylated substrate incubated for 15 mins by fluorescence based assay.
In test [20] the target is Histone deacetylase 2 (Homo sapiens, UniProt Q92769). In words: Inhibition of recombinant human HDAC2 using fluorescent green substrate incubated for 30 mins by fluorescence based assay.
Sequence of Histone deacetylase 2 (Q92769 whole entry): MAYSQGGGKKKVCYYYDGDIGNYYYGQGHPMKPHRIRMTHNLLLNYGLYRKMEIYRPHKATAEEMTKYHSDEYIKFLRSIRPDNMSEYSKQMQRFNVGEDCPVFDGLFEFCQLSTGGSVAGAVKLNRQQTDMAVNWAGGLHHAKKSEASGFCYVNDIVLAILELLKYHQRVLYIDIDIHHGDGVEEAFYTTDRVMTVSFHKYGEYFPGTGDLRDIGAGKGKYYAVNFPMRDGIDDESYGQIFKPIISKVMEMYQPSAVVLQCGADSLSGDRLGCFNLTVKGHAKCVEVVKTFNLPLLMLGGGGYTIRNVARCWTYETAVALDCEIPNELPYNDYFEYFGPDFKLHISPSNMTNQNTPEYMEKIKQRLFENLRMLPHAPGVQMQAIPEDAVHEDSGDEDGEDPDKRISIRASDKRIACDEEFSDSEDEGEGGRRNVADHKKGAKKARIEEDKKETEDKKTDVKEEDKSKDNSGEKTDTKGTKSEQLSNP
In test [21] the target is T4, Protein deacetylase HDAC6 (Homo sapiens, UniProt Q9UBN7).
T4 sequence (Q9UBN7 whole entry): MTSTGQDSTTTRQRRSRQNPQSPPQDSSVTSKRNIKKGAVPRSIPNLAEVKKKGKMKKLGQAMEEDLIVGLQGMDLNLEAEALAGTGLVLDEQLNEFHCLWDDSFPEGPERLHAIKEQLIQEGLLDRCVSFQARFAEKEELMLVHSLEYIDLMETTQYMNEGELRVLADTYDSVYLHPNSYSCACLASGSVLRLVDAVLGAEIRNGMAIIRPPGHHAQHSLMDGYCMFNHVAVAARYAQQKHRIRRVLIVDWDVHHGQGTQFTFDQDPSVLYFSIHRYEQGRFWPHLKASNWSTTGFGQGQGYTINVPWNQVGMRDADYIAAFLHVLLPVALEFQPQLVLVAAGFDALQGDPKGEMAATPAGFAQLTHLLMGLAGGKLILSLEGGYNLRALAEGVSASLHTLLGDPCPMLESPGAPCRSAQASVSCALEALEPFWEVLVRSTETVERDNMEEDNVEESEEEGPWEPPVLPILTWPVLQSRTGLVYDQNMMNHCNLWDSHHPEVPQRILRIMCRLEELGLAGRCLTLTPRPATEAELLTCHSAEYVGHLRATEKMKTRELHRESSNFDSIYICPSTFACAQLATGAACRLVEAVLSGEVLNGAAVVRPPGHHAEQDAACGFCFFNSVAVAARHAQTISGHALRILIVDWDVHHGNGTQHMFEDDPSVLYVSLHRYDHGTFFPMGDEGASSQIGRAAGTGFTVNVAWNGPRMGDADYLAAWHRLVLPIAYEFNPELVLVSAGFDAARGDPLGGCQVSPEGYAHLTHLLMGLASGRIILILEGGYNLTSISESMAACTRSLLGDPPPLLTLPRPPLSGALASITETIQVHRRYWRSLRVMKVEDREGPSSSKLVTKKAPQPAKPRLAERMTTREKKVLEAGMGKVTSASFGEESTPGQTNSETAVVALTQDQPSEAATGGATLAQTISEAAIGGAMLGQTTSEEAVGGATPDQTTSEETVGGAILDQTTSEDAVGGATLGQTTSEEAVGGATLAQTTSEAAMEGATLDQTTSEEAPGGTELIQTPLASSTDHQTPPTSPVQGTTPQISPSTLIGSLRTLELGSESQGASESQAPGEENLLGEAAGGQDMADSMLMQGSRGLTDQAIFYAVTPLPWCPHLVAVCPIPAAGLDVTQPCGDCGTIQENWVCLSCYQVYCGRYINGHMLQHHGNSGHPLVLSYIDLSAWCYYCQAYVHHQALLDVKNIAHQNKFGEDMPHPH
Briefly: Inhibition of HDAC6 derived from human HeLa cell nuclear extract using Boc-Lys(Ac)-AMC as substrate by fluorescence based assay. Format: cell-free.

For test [22], the target named is T1, Histone deacetylase 1. Briefly: Inhibition of HDAC1 derived from human HeLa cell nuclear extract using Boc-Lys(Ac)-AMC as substrate by fluorescence based assay. Format: cell-free.
The target of test [23] is T1, Histone deacetylase 1. In words: Inhibition of HDAC1 (unknown origin) incubated for 30 mins by fluorescence based assay.
The target in test [24] is T4, Protein deacetylase HDAC6. In words: Inhibition of HDAC6 (unknown origin) incubated for 30 mins by fluorescence based assay.

T1 sequence (Q13547 whole entry): as the sequence (Q13547 whole entry, looked up) above
T3 sequence (Q13547 whole entry): as the sequence (Q13547 whole entry, looked up) above
T3 sequence (P40337 whole entry): as the sequence (P40337 whole entry) above
Sequence of Protein cereblon/Histone deacetylase 1 (Q13547 whole entry): as the sequence (Q13547 whole entry, looked up) above
Sequence of Protein cereblon/Histone deacetylase 1 (Q96SW2 whole entry): as the sequence (Q96SW2 whole entry) above
Sequence of von Hippel-Lindau disease tumor suppressor/Histone deacetylase 2 (Homo sapiens) (P40337 whole entry, looked up): as the sequence (P40337 whole entry) above
Sequence of von Hippel-Lindau disease tumor suppressor/Histone deacetylase 2 (Homo sapiens) (Q92769 whole entry, looked up): as the sequence (Q92769 whole entry) above
Sequence of Protein cereblon/Histone deacetylase 2 (Q92769 whole entry): as above
Sequence of Protein cereblon/Histone deacetylase 2 (Q96SW2 whole entry): as the sequence (Q96SW2 whole entry) above
Sequence of von Hippel-Lindau disease tumor suppressor/Histone deacetylase 2 (Q92769 whole entry): as the sequence (Q92769 whole entry) above
Sequence of von Hippel-Lindau disease tumor suppressor/Histone deacetylase 2 (P40337 whole entry): as the sequence (P40337 whole entry) above

Take `Cc1ccc(C(=O)Nc2nc(C(=O)NO)co2)cc1`: inhibition in test [1] was half-maximal at 10 nM (IC50).
On to `O=C(CCCCCCNC(=O)c1ccc(NC(=O)COCCOCCNC(=O)COc2cccc3c2C(=O)N(C2CCC(=O)NC2=O)C3=O)cc1)NO` (centres undefined), for which the IC50 in test [2] was found to be 248 nM; in test [3], 27 nM; in test [4] it was 174 nM; in [5], 27 nM.
`CCCNNC(=O)c1ccc(-c2ccc(NC(=O)CCCCCCC(=O)N[C@H](C(=O)N3C[C@H](O)C[C@H]3C(=O)N[C@@H](C)c3ccc(-c4scnc4C)cc3)C(C)(C)C)cc2)cc1`: the half-maximal inhibitory concentration (IC50) was 350 nM in test [6], 650 nM in test [7] and 1550 nM in test [9]. Further, the EC50 in [8] is 42 nM.
With `COc1ccc2cc(C(=O)Oc3cccc(/C=C/C(=O)NO)c3)c(=O)oc2c1`, the Ratio IC50 in test [10] came out at 26. The IC50 was 230 nM in [11] and 190 nM in test [12].
For `CCCCNNC(=O)c1ccc(-c2ccccc2)cc1`, the IC50 in test [13] amounted to 90 nM.
Take `Cc1ncsc1-c1ccc(CNC(=O)[C@@H]2C[C@@H](O)CN2C(=O)[C@@H](NC(=O)CCCCCCCCCCC(=O)Nc2ccc(C(=O)Nc3ccccc3N)cc2)C(C)(C)C)cc1`: the IC50 in test [14] was 16800 nM. The Activity in [15], in test [16] and in test [17] was 50% each time.
Consider `Nc1ccccc1NC(=O)c1ccc2ncccc2c1`, for which the IC50 in test [18] was determined as 18700 nM; in test [19], 560 nM; in test [20] it was 26000 nM.
Take `CC(C)n1cnc2c(-c3cccc(OCCCC(=O)NO)c3)nc(N3CCOCC3)nc21`: the IC50 in [21] was 24 nM; in [22], 82 nM.
As to `O=C(CCCCCCC(=O)Nc1nc2c(s1)C[C@@H](NC(=O)c1cccc3ccccc13)CC2)NO`, the IC50 in test [23] turned out to be 1.4 nM; in test [24], 4.6 nM.

The term IC50 denotes the concentration that gives 50% inhibition. By EC50 is commonly meant the concentration giving half of the maximal effect.

The record behind these values is ChEMBL document CHEMBL5136981, “Medicinal chemistry updates of novel HDACs inhibitors (2020 to present)” (Eur J Med Chem, 2022).
